Test results: US20120264735A1 (priority 2009, published 2012)

What follows are compounds tested against T1, c-Met kinase (recombinant c-Met) (Homo sapiens, UniProt P08581) (assay: In vitro kinase assay I (homogeneous time-resolved fluorescence tyrosine kinase assay)).
T1 construct: 0.27 nM recombinant c-Met
Type: biochemical
In short: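 Biotinylated peptide (0.5 μM) phosphorylated by 0.2 nM recombinant c-Met with 50 μM MgATP, 60 min at room temperature, pH 7.4, 5% DMSO. EDTA stop; HTRF read with Eu-anti-phosphotyrosine antibody and streptavidin-APC. IC50 from 4-parameter logistic fit.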

T1 sequence (P08581 25-1390): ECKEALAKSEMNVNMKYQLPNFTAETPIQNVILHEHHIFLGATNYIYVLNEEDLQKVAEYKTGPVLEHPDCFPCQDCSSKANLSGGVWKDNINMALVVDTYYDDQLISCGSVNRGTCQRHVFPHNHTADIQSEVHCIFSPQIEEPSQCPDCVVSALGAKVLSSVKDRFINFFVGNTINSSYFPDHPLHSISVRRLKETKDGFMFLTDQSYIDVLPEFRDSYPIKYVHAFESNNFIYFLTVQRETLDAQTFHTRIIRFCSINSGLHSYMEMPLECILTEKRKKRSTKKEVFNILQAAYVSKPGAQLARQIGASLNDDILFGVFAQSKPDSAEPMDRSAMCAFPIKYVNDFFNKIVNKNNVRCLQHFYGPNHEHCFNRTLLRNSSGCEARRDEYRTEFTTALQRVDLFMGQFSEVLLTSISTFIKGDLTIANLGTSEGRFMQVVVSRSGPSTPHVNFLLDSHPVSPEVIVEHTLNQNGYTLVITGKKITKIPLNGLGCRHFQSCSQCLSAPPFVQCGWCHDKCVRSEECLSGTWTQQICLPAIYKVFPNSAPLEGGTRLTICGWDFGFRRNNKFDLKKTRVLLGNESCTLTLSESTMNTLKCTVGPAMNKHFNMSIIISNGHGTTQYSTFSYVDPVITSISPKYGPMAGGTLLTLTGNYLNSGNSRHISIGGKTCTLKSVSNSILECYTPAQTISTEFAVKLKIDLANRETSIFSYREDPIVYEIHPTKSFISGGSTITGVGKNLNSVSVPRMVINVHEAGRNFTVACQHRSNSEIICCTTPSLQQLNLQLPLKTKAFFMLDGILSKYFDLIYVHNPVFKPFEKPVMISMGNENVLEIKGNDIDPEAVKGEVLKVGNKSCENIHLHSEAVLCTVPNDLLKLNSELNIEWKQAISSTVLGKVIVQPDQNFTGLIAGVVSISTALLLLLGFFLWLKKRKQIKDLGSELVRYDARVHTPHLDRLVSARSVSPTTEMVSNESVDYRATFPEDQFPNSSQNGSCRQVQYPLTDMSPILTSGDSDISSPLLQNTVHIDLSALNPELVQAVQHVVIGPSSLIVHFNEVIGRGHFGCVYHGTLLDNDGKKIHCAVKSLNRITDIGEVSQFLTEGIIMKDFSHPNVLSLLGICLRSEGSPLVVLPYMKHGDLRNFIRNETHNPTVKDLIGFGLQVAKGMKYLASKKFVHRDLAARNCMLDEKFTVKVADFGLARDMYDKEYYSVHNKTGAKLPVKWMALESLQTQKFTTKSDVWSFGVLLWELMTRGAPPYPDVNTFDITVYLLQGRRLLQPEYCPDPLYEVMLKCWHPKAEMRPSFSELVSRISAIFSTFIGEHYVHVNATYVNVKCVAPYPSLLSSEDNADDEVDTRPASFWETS

Row | IC50 | Structure (SMILES)
1 | 100 to 1000 nM | COC(C)(C)c1cnc(-c2cccc(Cc3nn(-c4cnn(C)c4)ccc3=O)c2)nc1 [Example 168, 3-{3-[5-(1-methoxy-1-methylethyl)pyrimidin-2-yl]benzyl}-1-(1-methyl-1H-pyrazol-4-yl)pyridazin-4(1H)-one]
2 | < 100 nM | CCOc1cnc(-c2cccc(Cc3nn(-c4cnn(C)c4)ccc3=O)c2)nc1 [Example 3, 3-[3-(5-Ethoxypyrimidin-2-yl)benzyl]-1-(1-methyl-1H-pyrazol-4-yl)pyridazin-4(1H)-one]
3 | < 100 nM | Cn1cc(-n2ccc(=O)c(Cc3cccc(-c4ncc(-c5cn[nH]c5)cn4)c3)n2)cn1 [Example 410, 1-(1-methyl-1H-pyrazol-4-yl)-3-{3-[5-(1H-pyrazol-4-yl)pyrimidin-2-yl]benzyl}pyridazin-4(1H)-one]
4 | < 100 nM | CC(C)c1cnc(-c2cccc(Cc3nn(-c4cnn(C)c4)ccc3=O)c2)nc1 [Example 436, 1-(1-Methyl-1H-pyrazol-4-yl)-3-{3-[5-(propan-2-yl)pyrimidin-2-yl]benzyl}pyridazin-4(1H)-one]
5 | 1000 to 3000 nM | Cn1cc(-n2ccc(=O)c(Cc3cccc(CC(N)=O)c3)n2)cn1 [Example 48, 2-(3-{[1-(1-methyl-1H-pyrazol-4-yl)-4-oxo-1,4-dihydropyridazin-3-yl]methyl}phenyl)acetamide]
6 | < 100 nM | Cn1cc(-n2ccc(=O)c(Cc3cccc(-c4ncn(CCCC5OCC(C)(C)CO5)n4)c3)n2)cn1 [Example 720, 3-(3-{1-[3-(5,5-dimethyl-1,3-dioxan-2-yl)propyl]-1H-1,2,4-triazol-3-yl}benzyl)-1-(1-methyl-1H-pyrazol-4-yl)pyridazin-4(1H)-one]
7 | 100 to 1000 nM | Cn1cc(-n2ccc(=O)c(Cc3cccc(-c4ccn(C)n4)c3)n2)cn1 [Example 39, 1-(1-methyl-1H-pyrazol-4-yl)-3-[3-(1-methyl-1H-pyrazol-3-yl)benzyl]pyridazin-4(1H)-one]
8 | < 100 nM | COCCOc1cnc(-c2cccc(Cc3nn(-c4cnn(C)c4)cc(C)c3=O)c2)nc1 [Example 750, 3-{3-[5-(2-Methoxyethoxy)pyrimidin-2-yl]benzyl}-5-methyl-1-(1-methyl-1H-pyrazol-4-yl)pyridazin-4(1H)-one]
9 | 100 to 1000 nM | COCCOc1cnc2ccc(Cc3nn(-c4cnn(C)c4)ccc3=O)cc2c1 [Example 61, 3-{[3-(2-methoxyethoxy)quinolin-6-yl]methyl}-1-(1-methyl-1H-pyrazol-4-yl)pyridazin-4(1H)-one]
10 | < 100 nM | COC(=O)c1cnc(-c2cccc(Cc3nn(-c4cnn(C)c4)ccc3=O)c2)nc1 [Example 15, methyl 2-(3-{[1-(1-methyl-1H-pyrazol-4-yl)-4-oxo-1,4-dihydropyridazin-3-yl]methyl}phenyl)pyrimidine-5-carboxylate]
11 | 100 to 1000 nM | CCOc1cnc(-c2cccc(C(CCC#N)c3nn(-c4cn[nH]c4)ccc3=O)c2)nc1 (racemic) [Example 665, rac-4-[3-(5-Ethoxypyrimidin-2-yl)phenyl]-4-[4-oxo-1-(1H-pyrazol-4-yl)-1,4-dihydropyridazin-3-yl]butanenitrile]
12 | < 100 nM | CC(c1cccc(-c2ncc(OCC(C)(C)O)cn2)c1)c1nn(-c2cnn(C)c2)ccc1=O (single isomer, unassigned) [Example 381, 3-((1R or S)-1-{3-[5-(2-hydroxy-2-methylpropoxy)pyrimidin-2-yl]phenyl}ethyl)-1-(1-methyl-1H-pyrazol-4-yl)pyridazin-4(1H)-one]
13 | 100 to 1000 nM | CC(c1cccc(-c2ncc(-n3cnnc3)cn2)c1)c1nn(-c2cnn(C)c2)ccc1=O (single isomer, unassigned) [Example 240, 1-(1-methyl-1H-pyrazol-4-yl)-3-[(1R or S)-1-{3-[5-(4H-1,2,4-triazol-4-yl)pyrimidin-2-yl]phenyl}ethyl]pyridazin-4(1H)-one]
14 | < 100 nM | CC(c1cccc(-c2ncc(N3CCOCC3)cn2)c1)c1nn(-c2cnn(C)c2)ccc1=O (single isomer, unassigned) [Example 243, 1,1-methyl-1H-pyrazol-4-yl)-3-{(1S or R)-1-[3-(5-morpholin-4-ylpyrimidin-2-yl)phenyl]ethyl}pyridazin-4(1H) one]
15 | < 100 nM | CC(c1cccc(-c2ncc(C3CC3)cn2)c1)c1nn(-c2cnn(C)c2)ccc1=O (single isomer, unassigned) [Example 406, 3-{(1R or S)-1-[3-(5-cyclopropyl-pyrimidin-2-yl)phenyl]ethyl}-1-(1-methyl-1H-pyrazol-4-yl)pyridazin-4(1H)-one]
16 | < 100 nM | CCOc1cnc(-c2cccc(Cc3nn(-c4cc(F)cc(C#N)c4)ccc3=O)c2)nc1 [Example 133, 3-{3-[3-(5-ethoxypyrimidin-2-yl)benzyl]-4-oxopyridazin-1(4H)-yl}-5-fluorobenzonitrile]

More lines, now with the values behind:

Row | Structure (SMILES) | IC50
17 | N#Cc1cccc(-n2ccc(=O)c(Cc3cccc(NC(=O)OCC4COCCO4)c3)n2)c1 (racemic) [Example 601, rac-1,4-dioxan-2-ylmethyl (3-{[1-(3-cyanophenyl)-4-oxo-1,4-dihydropyridazin-3-yl]methyl}phenyl)carbamate] | < 100 nM
18 | Cn1cc(-n2ccc(=O)c(Cc3cccc(NC(=O)OCC(=O)O)c3)n2)cn1 [Example 629, ({[(3-{[1-(1-Methyl-1H-pyrazol-4-yl)-4-oxo-1,4-dihydropyridazin-3-yl]methyl}phenyl)amino]carbonyl}oxy)acetic acid] | 1000 to 3000 nM
19 | CCn1cnc(-c2cccc(Cc3nn(-c4cccc(C#N)c4)ccc3=O)c2)n1 [Example 84, 3-{3-[3-(1-Ethyl-1H-1,2,4-triazol-3-yl)benzyl]-4-oxopyridazin-1(4H)-yl}benzonitrile] | < 100 nM
20 | COCCOc1cnc(-c2cccc(Cc3nn(-c4cncc(C#N)c4)ccc3=O)c2)nc1 [Example 132, 5-[3-{3-[5-(2-methoxyethoxy)pyrimidin-2-yl]benzyl}-4-oxopyridazin-1(4H)-yl]pyridine-3-carbonitrile] | < 100 nM
21 | O=C(Nc1cccc(Cc2nn(-c3cc(F)c(F)c(F)c3)ccc2=O)c1)OCCCN1CCCC1 [Example 554, 3-pyrrolidin-1-ylpropyl (3-{[4-oxo-1-(3,4,5-trifluorophenyl)-1,4-dihydropyridazin-3-yl]methyl}phenyl)carbamate] | < 100 nM
22 | CC(C)COC(=O)Nc1cccc(Cc2nn(-c3cnn(CCCC(=O)O)c3)ccc2=O)c1 [Example 180, 4-{4-[3-(3-{[(2-methylpropoxy)carbonyl]amino}benzyl)-4-oxopyridazin-1(4H)-yl]-1H-pyrazol-1-yl}butanoic acid] | < 100 nM
23 | CC(C)COC(=O)Nc1cccc(Cc2nn(-c3cnn(CCCN(C)C)c3)ccc2=O)c1 [Example 667, 2-Methylpropyl {3-[(1-{1-[3-(dimethylamino)propyl]-1H-pyrazol-4-yl}-4-exo-1,4-dihydropyridazin-3-yl)methyl]phenyl}carbamate] | 100 to 1000 nM
24 | CC(C)COC(=O)Nc1cccc(Cc2nn(-c3cn[nH]c3)ccc2=O)c1 [Example 197, isobutyl (3-{[4-oxo-1-(1H-pyrazol-4-yl)-1,4-dihydropyridazin-3-yl]methyl}phenyl)carbamate] | < 100 nM
25 | CC(C)COC(=O)Nc1cccc(Cc2nn(-c3ccc(Br)cc3)ccc2=O)c1 [Example 68, 2-methylpropyl (3-{[1-(4-bromophenyl)-4-oxo-1,4-dihydropyridazin-3-yl]methyl}phenyl)carbamate] | < 100 nM
26 | N#Cc1cccc(-n2ccc(=O)c(Cc3cccc(NC(=O)OCCN4CCS(=O)(=O)CC4)c3)n2)c1 [Example 596, 2-(1,1-dioxidothio-morpholin-4-yl)ethyl (3-{[1-(3-cyanophenyl)-4-oxo-1,4-dihydropyridazin-3-yl]methyl}phenyl)carbamate] | < 100 nM
27 | CC(C)COC(=O)Nc1cccc(Cc2nn(-c3cccc(-c4cnn(C)c4)c3)ccc2=O)c1 [Example 729, 2-methylpropyl [3-({1-[3-(1-methyl-1H-pyrazol-4-yl)phenyl]-4-oxo-1,4-dihydropyridazin-3-yl}methyl)phenyl] carbamate] | 100 to 1000 nM
28 | O=C(Nc1cccc(Cc2nn(-c3cc(F)cc(F)c3)ccc2=O)c1)OCCN1CCNCC1 [Example 628, 2-piperazin-1-ylethyl (3-{[1-(3,5-difluorophenyl)-4-oxo-1,4-dihydropyridazin-3-yl]methyl}phenyl)carbamate] | < 100 nM
29 | Cn1cc(-n2ccc(=O)c(Cc3cccc(NC(=O)OCCN4CCS(=O)(=O)CC4)c3)n2)cn1 [Example 567, 2-(1,1-dioxidothio-morpholin-4-yl)ethyl (3-{[1-(1-methyl-1H-pyrazol-4-yl)-4-oxo-1,4-dihydropyridazin-3-yl]methyl}phenyl)carbamate] | < 100 nM
30 | COCCOC(=O)Nc1cccc(Cc2nn(-c3cc(F)cc(Cl)c3)ccc2=O)c1 [Example 509, 2-methoxyethyl (3-{[1-(3-chloro-5-fluorophenyl)-4-oxo-1,4-dihydropyridazin-3-yl]methyl}phenyl)carbamate] | < 100 nM
31 | CN1CCN(CCOC(=O)Nc2cccc(Cc3nn(-c4cc(F)cc(F)c4)ccc3=O)c2)CC1 [Example 519, 2-(4-methylpiperazin-1-yl)ethyl (3-{[1-(3,5-difluorophenyl)-4-oxo-1,4-dihydropyridazin-3-yl]methyl}phenyl)carbamate] | < 100 nM
32 | CCOc1cnc(-c2cccc(Cc3nn(-c4cccc(C(N)=O)c4)ccc3=O)c2)nc1 [Example 736, 3-[3-[3-(5-ethoxypyrimidin-2-yl)benzyl]-4-oxopyridazin-1(4H)-yl]benzamide] | < 100 nM
33 | N#Cc1cccc(-n2ccc(=O)c(Cc3cccc(NC(=O)OCCOCC(F)(F)F)c3)n2)c1 [Example 586, 2-(2,2,2-trifluoroethoxy)ethyl (3-{[1-(3-cyanophenyl)-4-oxo-1,4-dihydropyridazin-3-yl]methyl}phenyl)carbamate] | < 100 nM
34 | Cn1cc(-n2ccc(=O)c(Cc3cccc(NC(=O)OCc4ccccc4)c3)n2)cn1 [Example 498, benzyl(3-{[1-(1-methyl-1H-pyrazol-4-yl)-4-oxo-1,4-dihydropyridazin-3-yl]methyl}phenyl)carbamate] | < 100 nM
